{"source": "patent US20230158104A1", "about": "“COMPOUNDS FOR USE IN AUTOIMMUNE CONDITIONS” (priority 2020, published 2023)", "key": {"[1]": {"system": "cytokine secretion induced by Resiquimod in THP-1 cells", "test": "Plitidepsin pre-treatment of THP-1 NFκB luc cells before Resiquimod stimulus", "type": "cell-based, human", "settings": "1, 10 or 50 nM added 8 hours before Resiquimod 2.5 or 5 μg/mL; measured at 24 hours", "description": "At 0 time THP-1 cells were treated with 1 nM, 10 nM or 50 nM APL or DMSO (0.2%) followed by stimulus with Resiquimod at 2.5 or 5 μg/mL at 8 hours. At 24 hours cytokines or cell viability was measured.\nIn a further in vitro experiment, the effect of plitidepsin (APL) pre-treatment on THP-1 cells was studied. Using a THP-1 NFκB luc line, 1, 10 or 50 nM of APL or DMSO (0.2%) was added 8 hours before stimulus with Resiquimod (RQ) at 2.5 or 5 μg/mL. RQ is a TLR7/8 agonist and mimics ssRNA. At 24 hours the level of cytokines or cell viability was measured."}, "[2]": {"test": "Pharmacokinetics in patients", "type": "in vivo, Human"}, "alveolar macrophages": {"system": "alveolar macrophages", "settings": "mice, plitidepsin 1 mg/kg i.v. with LPS 20 μg/kg i.p., three hours"}, "[3]": {"test": "Pharmacokinetics, plasma and lung, hamster", "settings": "hamsters, single intravenous dose 0.2 mg/kg"}, "[4]": {"test": "Stability of plitidepsin drug product and reconstituted solution", "type": "physicochemical", "description": "Plitidepsin will be labelled with the study protocol code, the batch number, the content, the expiry date, the storage conditions, the name of the investigator and the sponsor. The study drug will be labelled in accordance with Annex 13 of the European Good Manufacturing Practices. Plitidepsin should be stored between 2° C. and 8° C. and the vials should be kept in the outer carton to protect them from light. The drug in these conditions is stable for 60 months.\nAfter reconstitution of the 2 mg plitidepsin vial with 4 ml of the solution for reconstitution of macrogolglycerol ricinoleate/ethanol/water for injection, the reconstituted solution should be diluted and used immediately after preparation. If not used immediately, storage times and conditions until use are the responsibility of the user. […] If storage is required before administration, solutions should be stored refrigerated and protected from light and should be used within 24 hours after reconstitution."}, "[5]": {"system": "LPS-trigged cytokine secretion in alveolar macrophages", "test": "Ex vivo LPS-B5-triggered cytokine secretion in bronchoalveolar lavage cells of treated mice", "settings": "mice 1 mg/kg i.v."}, "THP-1 cells": {"system": "THP-1 cells", "test": "MTT cell proliferation assay (cytotoxicity control)", "type": "cell-based, human", "settings": "activators combined with 100 nM plitidepsin, 6 hours"}, "[6]": {"system": "resiquimod (RQ)-trigged cytokine secretion in BALF", "test": "Resiquimod intranasal inflammation model, TNFα in BALF", "settings": "mice 1 mg/kg i.v. 1 hour before Resiquimod 50 μg/mouse intranasal; 1 or 3 hours after RQ"}, "[7]": {"test": "Pharmacokinetics, plasma and lung, mouse"}, "[8]": {"system": "TLR-trigged cytokine secretion in THP-1 cells", "test": "ELISA assays for secreted cytokines, TLR ligands combined with plitidepsin", "settings": "100 nM plitidepsin with TLR ligands, 6 hours, THP-1, ELISA"}, "[9]": {"test": "Pharmacokinetics, plasma and lung, rat", "settings": "rats, single intravenous dose 0.2 mg/kg"}, "COVID-19": {"system": "COVID-19", "type": "in vivo, human", "description": "All patients received the following prophylactic medications 20-30 minutes before the infusion of plitidepsin: • Diphenhydramine hydrochloride 25 mg iv or equivalent. • Ranitidine 50 mg iv or equivalent. • Dexamethasone 6.6 mg intravenous. • Ondansetron 8 mg i.v. in slow infusion of 15 minutes or equivalent.\nPatients included in the study will receive treatment for 3 days."}, "NF-κB": {"system": "NF-κB", "test": "NF-κB transactivation luciferase assay", "type": "cell-based, human", "settings": "100 nM plitidepsin, 6 hours, with poly I:C, LPS-B5 or Resiquimod; THP-1 NF-κB-Luc cells", "description": "Luminescence was measured in a Perkin-Elmer EnVision reader."}, "[10]": {"settings": "Human (M/F), 0.135 mg/kg (Recommended Dose 5 mg/m2, 3-h intravenous infusion)"}, "[11]": {"settings": "Human, 0.02 mg/kg (1.5 mg/patient), following 3 daily doses, estimated from population PK model"}, "[12]": {"settings": "BAL cells 12 hours after, ex vivo 15 μg/mL LPS-B5 for 3 or 6 hours, listed as plitidepsin, 1 mg/kg"}, "[13]": {"settings": "Mouse (F) C57BL6/J, 1.0 mg/kg single intravenous bolus, plasma"}, "[14]": {"settings": "individual patients, PLD 2.0 mg×3"}}, "note": "Values joined by “and” are separate entries in the source; they are usually repeats but may differ in a detail not shown here. Equal entries are not always repeated. “Also recorded” adds a separate entry of the source. Where two headings read alike, the source gives them in different places. Marks after values point to notes of the source that are not given here.", "data": [{"substance": "(−)-(3S,6R,7S,10R,11S,15S,17S,20S,25aS)-11-hydroxy-3-(4-methoxybenzyl)-2,6,17-trimethyl-15-(1-methylethyl)-7-[[(2R)-4-methyl-2-[methyl[[(2S)-1-(2-oxopropanoyl)pyrrolidin-2-yl]carbonyl]amino]pentanoyl]amino]-10-[(1S)-1-methylpropyl]-20-(2-methylpropyl)tetradecahydro-15H-pyrrolo[2,1-f]-[1,15,4,7,10,20]dioxatetrazacyclotricosine-1,4,8,13,16,18,21(17H)-heptone [PLD]", "values": [{"measurement": "secretion of IL1β", "setting": "[1]", "value": "inhibited"}, {"measurement": "secretion of IL6", "setting": "[1]", "value": "inhibited"}, {"measurement": "secretion of IL8", "setting": "[1]", "value": "inhibited"}, {"measurement": "secretion of TNF-α", "setting": "[1]", "value": "inhibited"}, {"measurement": "AUC0-∞", "setting": "[2]; [10]", "value": 256.0, "unit": "ng·h/mL"}, {"measurement": "Cl", "setting": "[2]; [10]", "value": "12 to 15", "unit": "mL/min/kg"}, {"measurement": "Cmax", "setting": "[2]; [10]", "value": 29.1, "unit": "ng/mL"}, {"measurement": "Vdss", "setting": "[2]; [10]", "value": "29-33 L7 kg"}, {"measurement": "t1/2", "setting": "[2]; [10]", "value": "20 to 80", "unit": "h"}, {"measurement": "AUC0-∞", "setting": "[2]; [11]", "value": "174.0^d ng · h/mL"}, {"measurement": "Cmax", "setting": "[2]; [11]", "value": "8.5^d ng/mL"}, {"measurement": "cytotoxic effects (CD45+ alive cells in bronchoalveolar lavage)", "setting": "alveolar macrophages", "value": "without cytotoxic effects"}, {"measurement": "percentage of macrophages present in bronchoalveolar lavage", "setting": "alveolar macrophages", "value": "decrease"}, {"measurement": "lung-to-plasma ratio (lungAUC0-∞/plasmaAUC0-∞)", "setting": "[3]", "value": 909}, {"measurement": "physical, chemical and microbiological stability of reconstituted concentrated solution", "setting": "[4]; original vial under indoor light at room temperature", "value": 6, "unit": "hours"}, {"measurement": "physical, chemical and microbiological stability of reconstituted concentrated solution", "setting": "[4]; refrigerated conditions (5° C.±3° C.)", "value": 24, "unit": "hours"}, {"measurement": "stability of the drug (2 mg vial, powder)", "setting": "[4]; stored between 2° C. and 8° C., in outer carton protected from light", "value": 60, "unit": "months"}, {"measurement": "secretion of IL-10 induced by LPS-B5", "setting": "[5]; BAL cells 12 hours after, ex vivo 15 μg/mL LPS-B5 for 3 or 6 hours", "value": "significantly reduce"}, {"measurement": "secretion of IL-6 induced by LPS-B5", "setting": "[5]; [12]", "value": "clearly inhibited; also recorded: significantly reduce"}, {"measurement": "secretion of TNFα induced by LPS-B5", "setting": "[5]; [12]", "value": "clearly inhibited; also recorded: significantly reduce"}, {"measurement": "cell viability of CD45+ cells from bronco-alveolar lavages", "setting": "[5]; LPS-B5 ex vivo", "value": "unrelated to cell viability"}, {"measurement": "Survival (MTT assay), cytotoxic effect", "setting": "THP-1 cells", "value": "No cytotoxic effect"}, {"measurement": "production of TNFα in BALF", "setting": "[6]", "value": "prevented the increased production"}, {"measurement": "AUC0-∞", "setting": "[7]; [13]", "value": 225.3, "unit": "ng·h/mL"}, {"measurement": "Cl", "setting": "[7]; [13]", "value": 73.3, "unit": "mL/min/kg"}, {"measurement": "Cmax", "setting": "[7]; [13]", "value": 50.7, "unit": "ng/mL"}, {"measurement": "Vdss", "setting": "[7]; [13]", "value": 101.8, "unit": "L7 kg"}, {"measurement": "t1/2", "setting": "[7]; [13]", "value": 18.2, "unit": "h"}, {"measurement": "Maximum Tolerated Dose", "setting": "[7]; Mouse (F) C57BL6/J, single intravenous bolus", "value": "1.0^a mg/kg"}, {"measurement": "lung-to-plasma ratio (lungAUC0-∞/plasmaAUC0-∞)", "setting": "[7]; mice, single intravenous dose 1.0 mg/kg", "value": 133}, {"measurement": "production of IL-1", "setting": "[8]", "value": "clearly inhibited"}, {"measurement": "production of IL-6", "setting": "[8]", "value": "clearly inhibited"}, {"measurement": "production of IL-8", "setting": "[8]", "value": "clearly inhibited"}, {"measurement": "production of TNFα", "setting": "[8]", "value": "clearly inhibited"}, {"measurement": "lung-to-plasma ratio (lungAUC0-∞/plasmaAUC0-∞)", "setting": "[9]", "value": 460}, {"measurement": "tolerability", "setting": "COVID-19; 45 patients, 1.5, 2.0 and 2.5 mg daily for 3 days, all 3 dose cohorts", "value": "well tolerated"}, {"measurement": "Hospital discharge by day", "setting": "COVID-19; [14]", "value": "≤ 10 days and ≤ 8 days"}, {"measurement": "PCR COVID 19 test converted to negative by day", "setting": "COVID-19; [14]", "value": "≤ 15 day and ≤ 7 day and still positive at day 7"}, {"measurement": "clinical outcome", "setting": "COVID-19; [14]", "value": "major clinical improvement"}, {"measurement": "patients discharged by Day 15", "setting": "COVID-19; mild disease, across dose cohorts (9/9)", "value": 100, "unit": "%"}, {"measurement": "patients discharged by Day 15", "setting": "COVID-19; moderate disease, across dose cohorts (23/28)", "value": 82, "unit": "%"}, {"measurement": "Bilateral pneumonia resolved by day", "setting": "COVID-19; patient 5, PLD 1.5 mg×3", "value": "≤ 6", "unit": "days"}, {"measurement": "C-reactive protein", "setting": "COVID-19; patient 5, PLD 1.5 mg×3", "value": "acute fall is seen by day 2"}, {"measurement": "C-reactive protein", "setting": "COVID-19; patients 7 and 9, PLD 2.0 mg×3", "value": "acute fall is seen by day 3"}, {"measurement": "patients discharged by Day 15", "setting": "COVID-19; severe disease, across dose cohorts (4/7)", "value": 57, "unit": "%"}, {"measurement": "production of luciferase (NF-κB transactivation)", "setting": "NF-κB", "value": "clearly inhibited"}]}]}
